Patent US4014909A, “Esters of 21-thiol steroids” (priority 1974, dated 1977)
Where two headings read alike, the source gives them in different places.

Experiments:
granuloma = assay: Anti-proliferative (anti-granulomatous) activity, cotton pellet granuloma; format: in vivo, rat (Wistar, male); details: rat, cotton pellet impregnated with product, 6 days
From the text: The experimental local anti-inflammatory activity of the compounds presented was estimated in rats by their anti-proliferative (anti-granulomatous) action, and for certain of these, by their anti-arthritic activity and their antiexudative activity.
The anti-proliferative (anti-granulomatous) activity has been brought into evidence by means of a test, the principle of which is as follows.
The introduction of a foreign body into an organism produces a set of inflammatory reactions which results, in the chromic stage, in the formation of a defence granuloma around the foreign body. The proliferation of this granuloma is eliminated or attenuated by anti-inflammatory agents.
The technique employed is very similar to that described by Winter and Porter (J. Am. Pharm. Ass. 46/9. 515) 1957 with rats.
Homogeneous groups of 6 male adult rats of the Wistar Strain were used, distributed at random and having weights comprised between 180 and 200 grams.
The implants or pellets were prepared from rolls of dental cotton; the weight of the pellets was between 35 and 40 mg.
The products to be tested were dissolved in dimethylsulphoxide (DMSO) and the solutions obtained, deposited on the pellets at a volume of 0.2 ml per pellet. The DMSO was then evaporated under high vacuum at ambient temperature, the complete elimination of the solvent being checked by weighing the pellets. "Reference" pellets, soaked with the solvent alone, were treated in the same manner.
Immediately before their introduction, the pellets were soaked with an antibiotic solution (0.1 ml. of a solution of penicillin G and streptomycin containing 200,000 of penicillin G and 0.1 gram of streptomycin sulphate per cc.).
Each animal received two pellets in the sub-cutaneous dorsal tissue on each side of the spinal column, at the costo-lumbar angle, under light anaesthesia with ether. The day of the operation and for three days after, the animals received by sub-cutaneous injection, 0.1 ml. of the antibiotic solution in the caudal region.
Six days after the introduction, the animals were killed by inhalation of chloroform and the granulomae were extracted and weighed, (fresh weight), and then the initial weights of the cotton pellets were subtracted from the total weight.
Certain non-sulphured steroids causing a large increase in protein catabolism which can influence the formation of the granuloma independently of their anti-inflammatory action, the weights of the granulomae were expressed as a percentage of the body weight (technique proposed by G. Dipasquale and A. Meli: J. Pharm. Pharmacol. (1965), 17,367-382) and the anti-proliferative effect of the various compounds as a percentage inhibition with respect to the reference granulomae. The DE50 were calculated by transferring the results on to semi-logarithmic paper.

thymus = format: in vivo, rat (Wistar, young male)
Procedure: The thymolytic effects have been examined by means of a test, the principle of which is as follows:
The repeated administration of a gluco-corticoid having a systemic activity causes an involution of the defence system of the organism, of which two organs belong to the reticulo-endothelial system, the spleen and the thymus, this latter being the most sensitive to this action, especially with young animals. The thymic involution is estimated by weighing.
The various products were injected daily by the oral or the sub-cutaneous route for four days, to young male rats of Wistar-strain, the initial weight of which was between 45 and 55 grams, distributed at random by groups of ten.
The products under study were administered at a volume of 0.2 ml. per animal for both methods, in suspension in:
Carboxy-methyl-cellulose at 5 % for sub-cutaneous injection;
Gum arabic at 5 % for the oral route.
The animals of the reference groups received the same volume of the corresponding vehicle.
Ninety-six hours after the first administration, the animals were killed, the thymus glands being taken and weighed immediately.
(§1) For each animal, the weight of the thymus has been brought to 100 grams of body weight. The thymolytic activity of the products under study was then expressed as a percentage of regression of the thymus with respect to the animals of the reference group and the ED50 of each product tested was estimated by transferring the percentage inhibition obtained for each dose on semi-logarithmic paper.

granuloma / thymus = assay: Ratio of the local anti-inflammatory activity to the thymolytic activity; format: in vivo, rat (Wistar); details: for ED50 anti-proliferative activity / ED50 thymolytic activity (sub-cutaneous route): thymolytic activity determined by sub-cutaneous route; for ED50 anti-proliferative activity / ED50 thymolytic activity (oral route): thymolytic activity determined by the oral route
Procedure: The DE50 were calculated by transferring the results on to semi-logarithmic paper.
as §1
The ratio is indicated in Tables VII, VIII and IX which follow: […]

[1] = cited from earlier work; for Adreno-corticoid activity / Diuretic activity: U.S. Pat. No. 2,814,632
[2] = oral, total dose administered during four days per rat of about 50 g
[3] = sub-cutaneous, total dose administered during four days per rat of about 50 g

SMILES	ED50 anti-proliferative activity (granuloma)	ED50 thymolytic activity, oral route (thymus; [2]) [mg]	ED50 thymolytic activity, sub-cutaneous route (thymus; [3]) [mg]	ED50 anti-proliferative activity / ED50 thymolytic activity (sub-cutaneous route) (granuloma / thymus)	ED50 anti-proliferative activity / ED50 thymolytic activity (oral route) (granuloma / thymus)	Adreno-corticoid activity [1]	Diuretic activity [1]	ED50 thymolytic activity, sub-cutaneous route (thymus; rat, in vivo, 5760 min) [mg]	ED50 thymolytic activity, oral route (thymus; rat, in vivo, po, 5760 min) [mg]	Anti-inflammatory action ([1]; French Pat. No. 1187 M)
C[C@]12C=CC(=O)C=C1CC[C@@H]1[C@@H]2[C@@H](O)C[C@@]2(C)[C@H]1CC[C@]2(O)C(=O)CO [Prednisolone (base), Prednisolone, reference compound]	4 mg/pellet	0.34	0.84	5	12.5					
CC(=O)SCC(=O)[C@@]1(O)CC[C@H]2[C@@H]3CCC4=CC(=O)C=C[C@]4(C)[C@H]3[C@@H](O)C[C@@]21C [21-thio-acetate of prednisolone]						possessing an adreno-corticoid activity	considerable diuretic activity			
C[C@@H]1C[C@H]2[C@@H]3CCC4=CC(=O)C=C[C@]4(C)[C@@]3(F)[C@@H](O)C[C@]2(C)[C@@]1(O)C(=O)CO [Dexamethasone (base), Dexamethasone, reference compound]	1 mg/pellet			50	80			10.02	0.013	
CC(C)(C)C(=O)SCC(=O)[C@@]1(O)CC[C@H]2[C@@H]3CCC4=CC(=O)C=C[C@]4(C)[C@H]3[C@@H](O)C[C@@]21C [JO 1007, Dihydroxy-11β, 17αThiol 21 Dioxo-3,20 Pregnadiene-1,4 -21 Pivalate]	0,44 mg/pellet			0.014	0.046			30.4	9.6	
C[C@]12CCC(=O)C=C1CC[C@@H]1[C@@H]2[C@@H](O)C[C@@]2(C)[C@H]1CC[C@]2(O)C(=O)CO [Hydrocortisone (base), Hydrocortisone, reference compound]	10 mg/pellet			5.5	2.5			1.8	4	
CC(=O)SCC(=O)[C@@]1(O)[C@H](C)C[C@H]2[C@@H]3CCC4=CC(=O)C=C[C@]4(C)[C@@]3(F)[C@@H](O)C[C@@]21C [21-thio-acetate of dexamethasone]										anti-inflammatory product with a local action and a systemic action
CC(=O)OCC(=O)[C@@]1(O)CC[C@H]2[C@@H]3CCC4=CC(=O)C=C[C@]4(C)[C@H]3[C@@H](O)C[C@@]21C [Prednisolone (acetate), reference compound]	2 mg/pellet	0.64	0.23							
CCC(=O)SCC(=O)[C@@]1(O)CC[C@H]2[C@@H]3CCC4=CC(=O)C=C[C@]4(C)[C@H]3[C@@H](O)C[C@@]21C [21-thio propionate of prednisolone]						possessing an adreno-corticoid activity	considerable diuretic activity			
C[C@]12CCC(=O)C=C1CC[C@@H]1[C@@H]2[C@@H](O)C[C@@]2(C)[C@H]1CC[C@]2(O)C(=O)CSC(=O)c1ccc(F)cc1 [JO 1026, Dihydroxy-11β, 17α thiol-21 dioxo-3,20 pregnene-4-21 p. fluoro-benzoate]	0.4 mg/pellet			< 0.01	< 0.01			> 40	> 40	
C[C@@H]1C[C@H]2[C@@H]3CCC4=CC(=O)C=C[C@]4(C)[C@@]3(F)[C@@H](O)C[C@]2(C)[C@@]1(O)C(=O)CSC(=O)C(C)(C)C [JO 1008, Dihydroxy-11β, 17α thiol-21 dioxo-3,20 fluoro-9α methyl-16α pregnadiene-1,4-21-pivalate]	1 mg/pellet			1.25				0.8		
CC(=O)OCC(=O)[C@@]1(O)[C@H](C)C[C@H]2[C@@H]3CCC4=CC(=O)C=C[C@]4(C)[C@@]3(F)[C@@H](O)C[C@@]21C [Dexamethasone (acetate), Dexamethasone acetate, reference compound]	0.4 mg/pellet			40	40			0.009	0.01	
CCCCCCC(=O)SCC(=O)[C@@]1(O)CC[C@H]2[C@@H]3CCC4=CC(=O)C=C[C@]4(C)[C@H]3[C@@H](O)C[C@@]21C [JO 1009, Dihydroxy-11β, 17αthiol-21 dioxo-3,20 pregnadiene-1,4-21 heptanoate]	0.5 mg/pellet			0.0625				8		
CCCCCCC(=O)SCC(=O)[C@@]1(O)[C@H](C)C[C@H]2[C@@H]3CCC4=CC(=O)C=C[C@]4(C)[C@@]3(F)[C@@H](O)C[C@@]21C [JO 1010, Dihydroxy611β, 17α thiol-21 dioxo-3,20 fluoro-9α methyl-16α pregnadiene-1,4-21 heptanoate]	0,5 mg/pellet			1.25				0.4		
C[C@@H]1C[C@H]2[C@@H]3CCC4=CC(=O)C=C[C@]4(C)[C@@]3(F)[C@@H](O)C[C@]2(C)[C@@]1(O)C(=O)CSC(=O)c1ccc(F)cc1 [JO 1013, Dihydroxy-11β, 17α thiol-21 dioxo-3,20 fluoro-9α methyl-16α pregnadiene-1,4-21 p. fluoro benzoate]	0.5 mg/pellet			0.625				0.8		
C[C@]12C=CC(=O)C=C1CC[C@@H]1[C@@H]2[C@@H](O)C[C@@]2(C)[C@H]1CC[C@]2(O)C(=O)CSC(=O)c1ccc(F)cc1 [JO 1014, Thiol-21 dioxo-3,20 pregnadiene-1,4-21 p. fluorobenzoate]	0.5 mg/pellet			0.0125	0,012			> 40	40	
